In patent US20250197359A1, “CANNABINOID RECEPTOR MODULATING COMPOUNDS” (The U.S.A., as Represented by the Secretary, Department of …, priority 2022, published 2025) one finds Ki and IC50 data, which are given here for 22 molecules.

Where “and” joins values, the source holds several entries; their conditions need not be identical. Equal entries are not always repeated.

One assay deals with CB1 (UniProt P21554). Kind of assay: CB1 radioligand binding assay. On the set-up: species or system human. To be noted: read-out: Ki (CB1). On the procedure:
The target compounds were evaluated in vitro at the human CB1 receptor, stably expressed into Chinese hamster ovary (CHO) cells by utilizing radioligand binding studies.
The binding constant for the synthesized compounds were determined by using radioligand binding assay in mouse brain membranes as well as the target compounds were evaluated in vitro at the human CB1 receptor, stably expressed into Chinese hamster ovary (CHO) cells as well as mouse brain membrane CB1. […]

The target in a further assay is T1, Brain/CB1 (Mus musculus, UniProt P47746).
T1 construct: from tissue; host or cells: mouse brain membranes
Kind of assay: Functional GTPγS binding, Brain/CB1. In kind it is biochemical. An excerpt:
Furthermore, the intermediates urea compounds 8a-m were chlorinated with phosphorus oxychloride in the presence of DIPEA base to form imidoyl chloride intermediate and reacted with acetamidine hydrochloride/methyl carbamimidothioate iodide/methyl carbamimidoselenoate iodide and other amines to furnish the target compounds (10a-34b) (Scheme 2, FIG. 2, Scheme 5, FIG. 5). The urea derivatives were converted to the thiourea derivatives 9a-9d by employing sodium thiosulfate. Compound 8a-b, 8e-f were converted to corresponding thiourea by employing sodium thiosulfate dissolved in water dioxane mixture and the reaction was heated to 85° C. for 2 h. […] The binding constant for the synthesized compounds were determined by using radioligand binding assay in mouse brain membranes as well as the target compounds were evaluated in vitro at the human CB1 receptor, stably expressed into Chinese hamster ovary (CHO) cells as well as mouse brain membrane CB1.

In general, Ki refers to a measure of affinity in units of concentration, obtained from inhibition or displacement. What is called IC50 is the midpoint of a concentration-inhibition curve.

T1 sequence (P47746 whole entry): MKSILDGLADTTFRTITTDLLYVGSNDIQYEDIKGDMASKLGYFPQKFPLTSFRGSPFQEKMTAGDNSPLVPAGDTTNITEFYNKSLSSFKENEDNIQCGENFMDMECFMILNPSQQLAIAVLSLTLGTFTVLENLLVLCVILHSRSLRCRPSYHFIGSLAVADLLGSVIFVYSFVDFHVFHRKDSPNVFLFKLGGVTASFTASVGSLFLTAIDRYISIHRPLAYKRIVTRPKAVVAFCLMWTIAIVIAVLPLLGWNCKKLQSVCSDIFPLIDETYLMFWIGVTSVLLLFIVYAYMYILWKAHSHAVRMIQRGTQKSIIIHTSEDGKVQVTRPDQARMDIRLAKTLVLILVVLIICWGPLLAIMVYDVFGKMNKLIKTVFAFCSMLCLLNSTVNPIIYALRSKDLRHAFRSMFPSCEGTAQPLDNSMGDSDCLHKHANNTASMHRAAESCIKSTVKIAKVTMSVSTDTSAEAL

Regarding `NC(=O)C(Cc1ccccc1)N/C(=N/S(=O)(=O)c1ccc(C(F)(F)F)cc1)N1CCC(c2ccccc2)C(c2ccc(Cl)cc2)=N1` (single isomer, unassigned) [Compound 33b, (Z)-2-(3-(4-chlorophenyl)-4-phenyl-N′-((4-(trifluoromethyl)phenyl)sulfonyl)-1,4,5,6-tetrahydropyridazine-1-carboximidamido)-3-phenylpropanamide], at CB1, the Ki worked out at 6.13 nM. For the same molecule, on Brain/CB1, the IC50 turned out to be 12 nM.
Take `COC(=O)C(N/C(=N/S(=O)(=O)c1ccc(C(F)(F)F)cc1)N1CCC(c2ccccc2)C(c2ccc(Cl)cc2)=N1)C(C)C` (single isomer, unassigned) [Compound 34a]: the Ki on CB1 amounted to 46.4 nM. For the same molecule, on Brain/CB1, the IC50 was 41 nM.
With `COC(=O)C(N/C(=N/S(=O)(=O)c1ccc(C(F)(F)F)cc1)N1CCC(c2ccccc2)C(c2ccc(Cl)cc2)=N1)C(C)C` (single isomer, unassigned) [Compound 34b], the Ki on CB1 stood at 2.71 nM. The molecule further registered an IC50 on Brain/CB1 of 17 nM.
With `C/C(N)=N\C(=N\S(=O)(=O)c1cccc(C(F)(F)F)c1)N1CCC(c2ccccc2)C(c2ccc(Cl)cc2)=N1` (centres unmarked) [Compound 10c, (Z)—N—((E)-1-aminoethylidene)-3-(4-chlorophenyl)-4-phenyl-N′-((3-(trifluoromethyl)phenyl)sulfonyl)-5,6-dihydropyridazine-1 (4H)-carboximidamide], the inhibitory constant (Ki) on CB1 was 28.3 nM. This molecule displayed an IC50 at Brain/CB1 of 105 nM.
For the molecule `C/C(N)=N\C(=N\S(=O)(=O)c1ccc2ccccc2c1)N1CCC(c2ccccc2)C(c2ccc(Cl)cc2)=N1` (centres unmarked) [Compound 10f, (Z)—N—((E)-1-aminoethylidene)-3-(4-chlorophenyl)-N′-(naphthalen-2-ylsulfonyl)-4-phenyl-5,6-dihydropyridazine-1 (4H)-carboximidamide], on CB1, the Ki amounted to 31.4 nM. This molecule also had an IC50 on Brain/CB1 of 132 nM.
In the case of `C/C(N)=N\C(=N\S(=O)(=O)c1ccccc1)N1CCC(c2ccccc2)C(c2ccc(Cl)cc2)=N1` (centres unmarked) [Compound 10g, (Z)—N—((E)-1-aminoethylidene)-3-(4-chlorophenyl)-4-phenyl-N′-(phenylsulfonyl)-5,6-dihydropyridazine-1 (4H)-carboximidamide], the Ki at CB1 was 128 nM and 212 nM. Further, the IC50 on Brain/CB1 is 357 nM.
As to `COc1ccc(S(=O)(=O)/N=C(/N=C(\C)N)N2CCC(c3ccccc3)C(c3ccc(Cl)cc3)=N2)cc1` (centres unmarked) [Compound 10h, (Z)—N—((E)-1-aminoethylidene)-3-(4-chlorophenyl)-N′-((4-methoxyphenyl)sulfonyl)-4-phenyl-5,6-dihydropyridazine-1 (4H)-carboximidamide], the Ki on CB1 worked out at 105 nM. On Brain/CB1, this molecule displayed an IC50 of 357 nM.
Take `C/C(N)=N\C(=N\S(=O)(=O)c1ccc(I)cc1)N1CCC(c2ccccc2)C(c2ccc(Cl)cc2)=N1` (centres unmarked) [Compound 10i, (Z)—N—((E)-1-aminoethylidene)-3-(4-chlorophenyl)-N′-((4-iodophenyl)sulfonyl)-4-phenyl-5,6-dihydropyridazine-1 (4H)-carboximidamide]: at CB1, the Ki was 43 nM. This molecule also showed an IC50 at Brain/CB1 of 118 nM.
Turning to `C/C(N)=N\C(=N\S(=O)(=O)c1ccc(F)cc1)N1CCC(c2ccccc2)C(c2ccc(Cl)cc2)=N1` (centres unmarked) [Compound 10j, (Z)—N—((E)-1-aminoethylidene)-3-(4-chlorophenyl)-N′-((4-fluorophenyl)sulfonyl)-4-phenyl-5,6-dihydropyridazine-1 (4H)-carboximidamide], on CB1, the inhibition constant Ki was determined as 59.3 nM. Moreover, the IC50 on Brain/CB1 is 182 nM.
With `C/C(N)=N\C(=N\S(=O)(=O)c1ccccc1C(F)(F)F)N1CCC(c2ccccc2)C(c2ccc(Cl)cc2)=N1` (centres unmarked) [Compound 10k, (Z)—N—((E)-1-aminoethylidene)-3-(4-chlorophenyl)-4-phenyl-N′-((2-(trifluoromethyl)phenyl)sulfonyl)-5,6-dihydropyridazine-1 (4H)-carboximidamide], the Ki on CB1 worked out at 50.6 nM. The same molecule yielded a concentration for half-maximal inhibition (IC50) on Brain/CB1 of 125 nM.
As to `N/C(=N\C(=N\S(=O)(=O)c1ccc(C(F)(F)F)cc1)N1CCC(c2ccccc2)C(c2ccc(Cl)cc2)=N1)c1ccccc1` (centres unmarked) [Compound 10r, (Z)—N—((Z)-amino (phenyl)methylene)-3-(4-chlorophenyl)-4-phenyl-N′-((4-(trifluoromethyl)phenyl)sulfonyl)-5,6-dihydropyridazine-1 (4H)-carboximidamide], on CB1, the inhibition constant (Ki) was 33 nM. In addition, at Brain/CB1, the IC50 was found to be 197 nM.
For the molecule `N/C(=N\C(=N\S(=O)(=O)c1ccc(C(F)(F)F)cc1)N1CCC(c2ccccc2)C(c2ccc(Cl)cc2)=N1)c1ccccc1F` (centres unmarked) [Compound 10t, (Z)—N—((Z)-amino (2-fluorophenyl)methylene)-3-(4-chlorophenyl)-4-phenyl-N′-((4-(trifluoromethyl)phenyl)sulfonyl)-5,6-dihydropyridazine-1 (4H)-carboximidamide], the Ki on CB1 stood at 7.4 nM. For the same molecule, the IC50 on Brain/CB1 is 25 nM.
For `N/C(=N\C(=N\S(=O)(=O)c1ccc(C(F)(F)F)cc1)N1CCC(c2ccccc2)C(c2ccc(Cl)cc2)=N1)c1ccc(F)cc1` (centres unmarked) [Compound 10u, (Z)—N—((Z)-amino (4-fluorophenyl)methylene)-3-(4-chlorophenyl)-4-phenyl-N′-((4-(trifluoromethyl)phenyl)sulfonyl)-5,6-dihydropyridazine-1 (4H)-carboximidamide], on CB1, the Ki was found to be 27.3 nM. Also, the IC50 at Brain/CB1 amounted to 107 nM.
For `N/C(=N\C(=N\S(=O)(=O)c1ccc(C(F)(F)F)cc1)N1CCC(c2ccccc2)C(c2ccc(Cl)cc2)=N1)c1ccccn1` (centres unmarked) [Compound 10v, (Z)—N—((Z)-amino (pyridin-2-yl)methylene)-3-(4-chlorophenyl)-4-phenyl-N′-((4-(trifluoromethyl)phenyl)sulfonyl)-5,6-dihydropyridazine-1 (4H)-carboximidamide], in that order: 7 nM and 26 nM.
The corresponding values for `N/C(=N\C(=N\S(=O)(=O)c1ccc(C(F)(F)F)cc1)N1CCC(c2ccccc2)C(c2ccc(Cl)cc2)=N1)c1cccs1` (centres unmarked) [Compound 10w, (Z)—N—((Z)-amino (thiophen-2-yl)methylene)-3-(4-chlorophenyl)-4-phenyl-N′-((4-(trifluoromethyl)phenyl)sulfonyl)-5,6-dihydropyridazine-1 (4H)-carboximidamide] are 140 nM and 234 nM.
Regarding `CC(C)(C)/C(N)=N/C(=N/S(=O)(=O)c1ccc(C(F)(F)F)cc1)N1CCC(c2ccccc2)C(c2ccc(Br)cc2)=N1` (centres unmarked) [Compound 10x, (Z)—N—((Z)-1-amino-2,2-dimethylpropylidene)-3-(4-bromophenyl)-4-phenyl-N′-((4-(trifluoromethyl)phenyl)sulfonyl)-5,6-dihydropyridazine-1 (4H)-carboximidamide], at CB1, the Ki is 20.3 nM. Besides, the IC50 at Brain/CB1 stood at 35 nM.
For `C/C(N)=N/C(=N/S(=O)(=O)c1ccc(C(F)(F)F)cc1)N1CCC(c2ccccc2)C(c2ccc(Br)cc2)=N1` (centres unmarked) [Compound 10y, (Z)—N—((Z)-1-aminoethylidene)-3-(4-bromophenyl)-4-phenyl-N′-((4-(trifluoromethyl)phenyl)sulfonyl)-5,6-dihydropyridazine-1 (4H)-carboximidamide], in that order: 57.2 nM and 92 nM.
Regarding `N/C(=N\C(=N\S(=O)(=O)c1ccc(C(F)(F)F)cc1)N1CCC(c2ccccc2)C(c2ccc(Br)cc2)=N1)c1ccccc1F` (centres unmarked) [Compound 10z, (Z)—N—((Z)-amino (2-fluorophenyl)methylene)-3-(4-bromophenyl)-4-phenyl-N′-((4-(trifluoromethyl)phenyl)sulfonyl)-5,6-dihydropyridazine-1 (4H)-carboximidamide], at CB1, the inhibition constant Ki was determined as 8.25 nM. The IC50 at Brain/CB1 worked out at 49 nM.
Turning to `N/C(=N\C(=N\S(=O)(=O)c1ccc(C(F)(F)F)cc1)N1CCC(c2ccccc2)C(c2ccc(Br)cc2)=N1)c1ccc(F)cc1F` (centres unmarked) [Compound 10za, (Z)—N—((Z)-amino (2,4-difluorophenyl)methylene)-3-(4-bromophenyl)-4-phenyl-N′-((4-(trifluoromethyl)phenyl)sulfonyl)-5,6-dihydropyridazine-1 (4H)-carboximidamide], on CB1, the Ki turned out to be 9.18 nM. The IC50 on Brain/CB1 worked out at 26 nM.
Turning to `CC(C)(C)/C(N)=N/C(=N/S(=O)(=O)c1ccc(C(F)(F)F)cc1)N1CCC(c2ccccc2)C(c2ccc(F)cc2)=N1` (centres unmarked) [Compound 10zb, (Z)—N—((Z)-1-amino-2,2-dimethylpropylidene)-3-(4-fluorophenyl)-4-phenyl-N′-((4-(trifluoromethyl)phenyl)sulfonyl)-5,6-dihydropyridazine-1 (4H)-carboximidamide], on CB1, the Ki stood at 75.6 nM. At Brain/CB1, this molecule came in with an IC50 of 478 nM.
Take `N/C(=N\C(=N\S(=O)(=O)c1ccc(C(F)(F)F)cc1)N1CCC(c2ccccc2)C(c2ccc(F)cc2)=N1)c1ccccc1F` (centres unmarked) [Compound 10zd, (Z)—N—((Z)-amino (2-fluorophenyl)methylene)-3-(4-fluorophenyl)-4-phenyl-N′-((4-(trifluoromethyl)phenyl)sulfonyl)-5,6-dihydropyridazine-1 (4H)-carboximidamide]: the inhibitory constant (Ki) on CB1 is 26 nM. Further, the IC50 on Brain/CB1 stood at 115 nM.
For `N/C(=N\C(=N\S(=O)(=O)c1ccc(C(F)(F)F)cc1)N1CCC(c2ccccc2)C(c2ccc(F)cc2)=N1)c1ccc(F)cc1F` (centres unmarked) [Compound 10ze, (Z)—N—((Z)-amino (2,4-difluorophenyl)methylene)-3-(4-fluorophenyl)-4-phenyl-N′-((4-(trifluoromethyl)phenyl)sulfonyl)-5,6-dihydropyridazine-1 (4H)-carboximidamide], the inhibition constant Ki at CB1 turned out to be 58.6 nM. This molecule also had an IC50 at Brain/CB1 of 450 nM.
